Results taken from ChEMBL document CHEMBL3886715, “Tetrahydroisoquinoline derivatives, pharmaceutical compositions and uses thereof” (2016).

Target: Acetyl-CoA carboxylase 2 (Homo sapiens, UniProt O00763)
Experiment: Spectrophotometric 384 Well Assay: Assay reactions are then carried out in 384-well plates, with hACC2 in an appropriate dilution and at final assay concentrations (f.c.) of 100 mM Tris (pH 7.5), 10 mM trisodium citrate, 25 mM KHCO3, 10 mM MgCl2, 0.5 mg/ml BSA, 3.75 mM reduced L-glutathione, 15 U/ml lactate dehydrogenase, 0.5 mM phosphoenolpyruvate, 15 U/ml pyruvate kinase, compounds at different concentrations at final DMSO concentrations of 1%.The enzymatic reaction is then started by addition of a mixture of NADH, acetyl Coenzyme A (both […].) and ATP (500 uM f.c.). The decrease of the optical density (slope S) is then determined at 25° C. at a wavelength of 340 nm over 15 minutes in a spectrophotometric reader.Each assay microtiter plate contains wells with vehicle instead of compound as controls for the non-inhibited enzyme (100% CTL; HIGH) and wells without acetyl-CoA as controls for non-specific NADH degradation (0% CTL; LOW).

Acetyl-CoA carboxylase 2, sequence (O00763 whole entry): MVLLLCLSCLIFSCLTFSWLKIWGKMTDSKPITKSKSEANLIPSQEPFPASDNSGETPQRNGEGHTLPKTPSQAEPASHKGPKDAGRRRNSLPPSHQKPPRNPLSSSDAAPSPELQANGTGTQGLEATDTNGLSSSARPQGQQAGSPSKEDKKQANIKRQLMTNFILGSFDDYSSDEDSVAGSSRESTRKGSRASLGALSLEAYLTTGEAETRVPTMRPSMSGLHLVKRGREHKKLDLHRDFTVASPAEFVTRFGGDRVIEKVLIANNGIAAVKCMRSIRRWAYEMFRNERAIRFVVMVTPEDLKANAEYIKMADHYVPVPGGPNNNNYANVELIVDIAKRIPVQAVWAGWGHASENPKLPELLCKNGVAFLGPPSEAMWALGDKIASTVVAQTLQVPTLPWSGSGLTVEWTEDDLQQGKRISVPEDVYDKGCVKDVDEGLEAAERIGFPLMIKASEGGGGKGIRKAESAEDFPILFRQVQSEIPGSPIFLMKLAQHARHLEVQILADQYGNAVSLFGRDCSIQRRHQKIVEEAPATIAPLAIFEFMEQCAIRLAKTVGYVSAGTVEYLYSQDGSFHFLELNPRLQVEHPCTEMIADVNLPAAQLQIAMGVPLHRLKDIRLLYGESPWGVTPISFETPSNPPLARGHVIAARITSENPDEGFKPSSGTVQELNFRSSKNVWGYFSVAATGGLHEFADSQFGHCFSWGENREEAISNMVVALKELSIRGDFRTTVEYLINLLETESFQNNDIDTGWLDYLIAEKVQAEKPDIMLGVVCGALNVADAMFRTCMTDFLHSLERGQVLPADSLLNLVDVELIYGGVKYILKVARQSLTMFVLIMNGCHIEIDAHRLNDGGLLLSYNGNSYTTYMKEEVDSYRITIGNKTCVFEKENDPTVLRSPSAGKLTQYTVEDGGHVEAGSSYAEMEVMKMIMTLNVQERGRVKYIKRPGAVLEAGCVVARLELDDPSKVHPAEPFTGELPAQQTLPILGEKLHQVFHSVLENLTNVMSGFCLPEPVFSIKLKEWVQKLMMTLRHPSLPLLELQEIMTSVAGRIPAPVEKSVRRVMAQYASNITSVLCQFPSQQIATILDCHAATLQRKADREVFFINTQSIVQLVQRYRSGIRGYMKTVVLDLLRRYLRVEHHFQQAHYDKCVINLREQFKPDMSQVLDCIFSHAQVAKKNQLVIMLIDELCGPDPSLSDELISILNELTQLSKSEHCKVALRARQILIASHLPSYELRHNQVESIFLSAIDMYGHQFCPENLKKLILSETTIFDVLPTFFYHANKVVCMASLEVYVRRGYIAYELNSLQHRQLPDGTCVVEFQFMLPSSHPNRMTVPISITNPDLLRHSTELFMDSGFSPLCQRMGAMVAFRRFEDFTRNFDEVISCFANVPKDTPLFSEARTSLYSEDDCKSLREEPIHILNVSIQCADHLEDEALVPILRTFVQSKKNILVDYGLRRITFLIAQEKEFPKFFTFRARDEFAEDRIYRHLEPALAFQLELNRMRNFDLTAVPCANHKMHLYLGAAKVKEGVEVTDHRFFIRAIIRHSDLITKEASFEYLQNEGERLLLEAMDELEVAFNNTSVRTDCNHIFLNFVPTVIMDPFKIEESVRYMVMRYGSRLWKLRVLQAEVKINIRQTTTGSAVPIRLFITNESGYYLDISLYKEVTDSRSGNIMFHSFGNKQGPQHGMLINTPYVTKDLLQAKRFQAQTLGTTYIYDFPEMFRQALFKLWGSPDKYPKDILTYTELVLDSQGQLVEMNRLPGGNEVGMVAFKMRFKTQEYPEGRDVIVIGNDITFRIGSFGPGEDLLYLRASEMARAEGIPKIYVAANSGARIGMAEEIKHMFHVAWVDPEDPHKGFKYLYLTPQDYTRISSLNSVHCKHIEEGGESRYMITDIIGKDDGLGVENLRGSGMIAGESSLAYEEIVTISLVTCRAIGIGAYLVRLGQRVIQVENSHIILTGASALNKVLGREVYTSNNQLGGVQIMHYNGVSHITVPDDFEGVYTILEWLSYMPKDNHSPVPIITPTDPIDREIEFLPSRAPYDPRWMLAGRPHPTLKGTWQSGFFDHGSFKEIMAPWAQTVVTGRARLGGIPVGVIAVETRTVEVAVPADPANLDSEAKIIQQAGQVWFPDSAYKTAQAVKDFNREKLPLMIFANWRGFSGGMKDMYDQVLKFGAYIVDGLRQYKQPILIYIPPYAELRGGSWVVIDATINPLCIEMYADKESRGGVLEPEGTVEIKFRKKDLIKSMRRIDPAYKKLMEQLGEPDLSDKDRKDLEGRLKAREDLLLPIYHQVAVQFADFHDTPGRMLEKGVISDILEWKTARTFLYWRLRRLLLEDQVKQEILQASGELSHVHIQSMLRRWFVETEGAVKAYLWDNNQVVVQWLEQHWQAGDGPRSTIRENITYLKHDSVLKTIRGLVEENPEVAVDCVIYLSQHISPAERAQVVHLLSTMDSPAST

IC50 | SMILES
0.806 µM | CC(=O)N[C@@H](C)c1ccc(CN2CCc3cc(OCC4CC4)ccc3C2C(=O)O)cc1 (some centres not stated)
0.022 µM | C[C@H](NC(=O)N(C)C)c1ccc(CN2Cc3ccc(OCC4CC4)cc3C(F)C2)cc1 (some centres not stated)
